Some test systems named below: SNB-78; LOX IMVI; HT-29; A549; COLO 205; SF-268; NCI-H460; UACC-62; KM-20L2; CCRF-CEM; K562; SK-MEL-5; OVCAR-5; UACC-257; SK-MEL-2.
Holding throughout (assay): growth of human tumour cells (NCI), 48 h

Consider five molecules from ChEMBL document CHEMBL1201862, “PubChem BioAssay data set” (2004).

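Assay format: 96-well plates, 48-hour exposure. Here, GI50 denotes the concentration required for 50% inhibition of growth.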 Calls of active or inactive are those of the source. Cut-off read from the data, not from the text of the source: active = GI50 up to about 1.1 µM and inactive = higher.

In the case of `CCOC1=C2C(C)(CCC3[C@@]4(C)C=CC(=O)C(C)(C)C4CC(O)[C@@]23C)C(c2ccoc2)C1=O` (stereo not given in full), the GI50 in the test with SNB-78 was 38.5 µM (inactive); in the test on LOX IMVI, 14.9 µM (inactive); in the test on HT-29, 10.9 µM (inactive); with A549 it was 21.1 µM (inactive); in the test on COLO 205 it was 13.1 µM (inactive); in the test on SF-268 it was 24.2 µM (inactive). Further, the GI50 in the test with NCI-H460 was 13.7 µM (inactive); in the test with UACC-62, 18.7 µM (inactive); in the test on KM-20L2, 17.1 µM (inactive); with CCRF-CEM it was 7.93 µM (inactive); in the test on K562, 7.24 µM (inactive); in the test with SK-MEL-5, 15.2 µM (inactive). The GI50 with OVCAR-5 is 19.2 µM (inactive); in the test on UACC-257 it was 23.7 µM (inactive); with SK-MEL-2, 19.2 µM (inactive).

For `CC1=NN(C(=O)CC(=O)N(C(=O)c2ccccc2Cl)c2ccc(C)cc2)C(=O)C1/N=N/c1ccc([N+](=O)[O-])cc1` (stereo not given), the GI50 was 57.5 µM (inactive) in the test with SNB-78; 23.9 µM (inactive) in the test on LOX IMVI; > 63.4 µM (inactive) in the test on HT-29; 34.1 µM (inactive) with A549; > 43.6 µM (inactive) in the test on COLO 205; 44.6 µM (inactive) with SF-268. Also, the GI50 in the test on NCI-H460 was > 47.3 µM (inactive); with UACC-62, 21.6 µM (inactive); in the test with KM-20L2 it was > 55.6 µM (inactive); with CCRF-CEM, > 49.8 µM (inactive); in the test with K562 it was > 53.5 µM (inactive); in the test on SK-MEL-5, 99.1 µM (inactive). In addition, the GI50 is > 46.1 µM (inactive) with OVCAR-5, > 78.3 µM (inactive) in the test with UACC-257 and > 100 µM (inactive) with SK-MEL-2.

Consider `O=C(/C=C/c1ccccc1Cl)c1cccc2ccccc12`, for which the GI50 with SNB-78 is 20.3 µM (inactive); with LOX IMVI, 11.4 µM (inactive); in the test on HT-29 it was 10.4 µM (inactive); with A549 it was 16.7 µM (inactive); with COLO 205, 19 µM (inactive); in the test with SF-268, 12.9 µM (inactive). Moreover, the GI50 in the test with NCI-H460 is 2.82 µM (inactive); with UACC-62 it was 15.2 µM (inactive); with KM-20L2, 7.06 µM (inactive); in the test on CCRF-CEM, 4.82 µM (inactive); in the test with K562, 4.38 µM (inactive); with SK-MEL-5, 19.4 µM (inactive). Moreover, the GI50 was 13.6 µM (inactive) in the test on OVCAR-5, 18 µM (inactive) in the test with UACC-257 and 18.4 µM (inactive) in the test with SK-MEL-2.

With `COc1ccc(C(=O)C2=NON3OC23C(=O)c2ccc(OC)cc2)cc1` (stereo not given), the GI50 with SNB-78 was 13 µM (inactive); with LOX IMVI, 5.58 µM (inactive); in the test with HT-29 it was 22.4 µM (inactive); in the test with A549, 22.4 µM (inactive); with COLO 205, 7.62 µM (inactive); in the test on SF-268, 18.8 µM (inactive). Further, the GI50 in the test with NCI-H460 is 20.6 µM (inactive); in the test with UACC-62, 17.8 µM (inactive); in the test with KM-20L2 it was 19.1 µM (inactive); in the test with CCRF-CEM, 2.34 µM (inactive); in the test with K562 it was 3.12 µM (inactive); with SK-MEL-5, 14.1 µM (inactive). Moreover, the GI50 was 20.7 µM (inactive) in the test on OVCAR-5, 18.9 µM (inactive) with UACC-257 and 19.5 µM (inactive) in the test on SK-MEL-2.

For `O=C(Cc1ccccc1)NN1C(=O)C(Cl)C1c1cc(Br)ccc1O` (stereo not given), the GI50 was 8 µM (inactive) in the test with SNB-78; 4.15 µM (inactive) in the test with LOX IMVI; 7.64 µM (inactive) with HT-29; 10.1 µM (inactive) in the test with A549; 14.1 µM (inactive) in the test with COLO 205; 1.95 µM (inactive) with SF-268. In addition, the GI50 is 2.2 µM (inactive) in the test on NCI-H460; 4.15 µM (inactive) in the test on UACC-62; 9.64 µM (inactive) with KM-20L2; 0.755 µM (active) in the test with CCRF-CEM; 3.35 µM (inactive) with K562; 7.59 µM (inactive) with SK-MEL-5. Also, the values for the GI50 in the test on OVCAR-5, in the test on UACC-257 and in the test with SK-MEL-2 were 5.57 µM (inactive), 1.29 µM (inactive) and 3.05 µM (inactive), respectively.
